# From patent US10471161B2, “Vinylsulfone-based 18F-labeling compositions and methods and uses thereof” (priority 2014, dated 2019)
# Where a SMILES comes first, the peptide text is derived from it. [ ]: non-standard residue; d: D form. The star is where a group is joined. ξ: configuration not given here. ξGly(4-Pip(1-amidino)) = N=C(N)N1CCC(C(N)C(=O)O)CC1; ξGly(piperidin-4-yl) = NC(C(=O)O)C1CCNCC1; Tle = CC(C)(C)[C@H](N)C(=O)O; X1 = O=S(=O)(CCOCCOCCF)CC*
# Experiments:
# [1] = target: T1, NTR1 (Homo sapiens, UniProt P30989); assay: competitive cell-binding assay with 125I-NT(8-13) in HT-29 cells; conditions: 1 hr at 37° C, n=3, read-out: IC50, inhibition of binding of 125I-NT(8-13) to NTR1 positive HT-29 cells
# T1 construct: host or cells: HT-29 human colon adenocarcinoma cells (intact, adherent)
# T1 sequence (P30989 whole entry): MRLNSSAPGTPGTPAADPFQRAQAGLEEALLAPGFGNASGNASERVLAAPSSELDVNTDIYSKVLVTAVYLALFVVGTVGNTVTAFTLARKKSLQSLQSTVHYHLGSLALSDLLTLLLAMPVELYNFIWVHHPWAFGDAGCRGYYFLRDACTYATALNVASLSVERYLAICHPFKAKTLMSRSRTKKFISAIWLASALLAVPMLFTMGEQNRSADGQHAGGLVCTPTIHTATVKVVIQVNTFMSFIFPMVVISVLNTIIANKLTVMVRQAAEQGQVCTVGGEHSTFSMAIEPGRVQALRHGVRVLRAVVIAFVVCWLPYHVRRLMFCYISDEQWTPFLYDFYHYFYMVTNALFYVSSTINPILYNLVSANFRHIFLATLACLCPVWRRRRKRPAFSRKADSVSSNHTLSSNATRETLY
# Description: The human colon adenocarcinoma cell HT29 was obtained from American Type Culture Collection and maintained at 37° C. in a humidified atmosphere containing 5% CO2 in RPMI-1640, supplemented with 1% L-glutamine, 1% penicillin/streptomycin and 10% fetal bovine serum (Life Technologies, Inc.).
# In detail, HT-29 cells were placed in 48-wells plates (1 million/0.4 mL/well) and were incubated for overnight. The cells were washed three times with binding buffer (50 mM Hepes, 125 mM NaCl, 7.5 mM KCl, 5.5 mM MgCl2, 1 mM EGTA, 5 g/L BSA, 2 mg/L chymostatin, 100 mg/L soybean trypsin inhibitor, 50 mg/L bacitracin, pH 7.4). […] After washing, cells were solubilized with 1 mol/L NaOH at 37° C. and the radioactivity was determined using a gamma counter. The best-fit 50% inhibitory concentration (IC50) values for HT-29 cells were calculated by fitting the data with nonlinear regression using GraphPad Prism (GraphPad Software). Experiments were performed on triplicate samples.
# [2] = in vitro stability, incubation in PBS, radio-HPLC; format: physicochemical; conditions: 4 hr post HPLC purification
# Description: ^18F-DEG-VS (100 μL, 1 mCi) and 30 μL of borate buffer (pH 8.5) were added into Neurotensin (100 μg, […]) or (Ac)-NT and the reaction mixture was incubated at room temperature for 5-10 min. The reaction was quenched by acetic acid (5%, 600 μL) and product was purified by radio HPLC using Method 1. The retention time of ^18F-DEG-VS-NT was 25.6 min and (^18F-DEG-VS)2-NT was not observed. […] An aliquot of the solution was then analyzed by radio-HPLC to determine the radiochemical purify. The retention time of ^18F-DEG-VS-(Ac)-NT was 28.4 min.
IC50 [1] [nM],SMILES,radiochemical purity after incubation in PBS [2]
2.03 ± 0.22,CC(C)C[C@H](NC(=O)[C@@H](NC(=O)[C@H](Cc1ccc(O)cc1)NC(=O)[C@@H]1CCCN1C(=O)[C@H](CCCNC(=N)N)NC(=O)C(NC(=O)[C@@H]1CCCN1C(=O)C(NC(=O)[C@@H](N)CSCCS(=O)(=O)CCOCCOCCF)C1CCNCC1)C1CCN(C(=N)N)CC1)C(C)(C)C)C(=O)O (stereo partly drawn) [^19F-DEG-VS-NT] (H-C(X1)[ξGly(piperidin-4-yl)]P[ξGly(4-Pip(1-amidino))]RPY[Tle]L-OH),
,C=CS(=O)(=O)CCOCCOCC[18F] [^18F-DEG-VS],more than 99%
